Measurements reported in publication PMC5896380, “Selective imaging of cathepsin L in breast cancer by fluorescent activity-based probes” (Chemical Science, 2018).
Read-outs that look alike come from different tables or passages of the source. Non-standard residues stand in square brackets, D forms with d. *: point of attachment. Phe(F5) = N[C@@H](Cc1c(F)c(F)c(F)c(F)c1F)C(=O)O; Phe(3,4-F2) = N[C@@H](Cc1ccc(F)c(F)c1)C(=O)O; Phe(3-Cl) = N[C@@H](Cc1cccc(Cl)c1)C(=O)O; Phe(2-Cl) = N[C@@H](Cc1ccccc1Cl)C(=O)O; ACC = NC(=O)Cc1cc(=O)oc2cc(N*)ccc12; Orn = NCCC[C@H](N)C(=O)O; Dab = NCC[C@H](N)C(=O)O; Bn = c1ccc(C*)cc1

Legend:
Format in all cases: biochemical
cathepsin L = biological target: T1, cathepsin L (Homo sapiens, UniProt P07711); experiment: Kinetic parameters of ACC substrates with cathepsin L; conditions: for kcat/KM Cath-L: Fig. 5B, triplicate
T1 construct: made in house
Experimental: (§1) All kinetic experiments were performed using fMax (Molecular Devices) and CLARIOStar (BMG LABTECH) spectrofluorimeters operating in kinetic mode using 96-well plates. ACC-labeled substrates were screened using 355 nm and 460 nm wavelengths (excitation and emission, respectively). […] The buffer was prepared at room temperature and the enzyme kinetic studies were performed at 37 °C.
(§2) Classic substrate velocity plots were analyzed according to Michaelis–Menten kinetics and a detailed protocol for the determination of kinetic parameters for ACC-tagged substrates is found elsewhere.[56] […] Experiments were repeated at least three times and results are presented as an average. The SDs were below 15%.

cathepsin V = biological target: T2, cathepsin V (Homo sapiens, UniProt O60911); experiment: Kinetic parameters of ACC substrates with cathepsin V; conditions: for kcat/KM Cath-V: Fig. 5B, pH 5.5, 37 °C, cathepsin V 10–20 nM, triplicate, SD below 15%
T2 construct: made in house
Experimental: as §1, §2

cathepsin B = biological target: T3, cathepsin B (Homo sapiens, UniProt P07858); experiment: Kinetic parameters of ACC substrates with cathepsin B; conditions: for kcat/KM Cath-B: Fig. 5B, pH 5.5, 37 °C, cathepsin B 4–15 nM, triplicate, SD below 15%
T3 construct: made in house
Experimental: as §1, §2

cathepsin K = biological target: T4, cathepsin K (Homo sapiens, UniProt P43235); experiment: Kinetic parameters of ACC substrates with cathepsin K; conditions: for kcat/KM Cath-K: Fig. 5B, pH 5.5, 37 °C, cathepsin K 5–20 nM, triplicate, SD below 15%
T4 construct: made in house
T4 sequence (P43235 115-329): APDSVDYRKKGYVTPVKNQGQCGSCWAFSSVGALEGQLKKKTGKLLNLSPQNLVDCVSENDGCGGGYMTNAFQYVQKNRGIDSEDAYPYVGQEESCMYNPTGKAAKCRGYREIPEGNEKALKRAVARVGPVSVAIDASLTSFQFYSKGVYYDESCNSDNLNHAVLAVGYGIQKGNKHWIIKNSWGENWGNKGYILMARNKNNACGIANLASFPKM
Experimental: as §1, §2

cathepsin S = biological target: T5, cathepsin S (Homo sapiens, UniProt P25774); experiment: Kinetic parameters of ACC substrates with cathepsin S; conditions: for kcat/KM Cath-S: Fig. 5B, pH 5.5, 37 °C, cathepsin S 5–20 nM, triplicate, SD below 15%
T5 construct: made in house
Experimental: as §1, §2

[1] = Fig. 4B, ACC substrates, 100 mM sodium acetate, 100 mM NaCl, 10 mM DTT, 1 mM EDTA, pH 5.5, 37 °C, cathepsin L 0.1–0.5 nM, average of at least three, SD below 15%
[2] = Table S2, cathepsin L, four independent experiments, S.D. below 15%
[3] = pH 5.5, 37 °C, cathepsin L 0.1–0.5 nM, SD below 15%
[4] = Table S7, four independent experiments, S.D. below 15%

T5 sequence (P25774 115-331): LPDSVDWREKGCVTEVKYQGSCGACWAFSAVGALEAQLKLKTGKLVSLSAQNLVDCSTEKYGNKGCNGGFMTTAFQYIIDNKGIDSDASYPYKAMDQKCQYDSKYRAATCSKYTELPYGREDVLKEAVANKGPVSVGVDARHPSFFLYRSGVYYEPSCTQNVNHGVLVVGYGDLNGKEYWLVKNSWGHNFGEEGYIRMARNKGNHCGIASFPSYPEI
T1 sequence (P07711 114-333): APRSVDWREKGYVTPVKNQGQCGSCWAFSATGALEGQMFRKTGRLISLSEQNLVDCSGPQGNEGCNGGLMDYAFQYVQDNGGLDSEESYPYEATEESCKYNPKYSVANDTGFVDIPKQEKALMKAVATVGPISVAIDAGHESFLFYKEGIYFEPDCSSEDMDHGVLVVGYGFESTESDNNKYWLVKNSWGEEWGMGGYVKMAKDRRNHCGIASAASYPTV
T2 sequence (O60911 114-334): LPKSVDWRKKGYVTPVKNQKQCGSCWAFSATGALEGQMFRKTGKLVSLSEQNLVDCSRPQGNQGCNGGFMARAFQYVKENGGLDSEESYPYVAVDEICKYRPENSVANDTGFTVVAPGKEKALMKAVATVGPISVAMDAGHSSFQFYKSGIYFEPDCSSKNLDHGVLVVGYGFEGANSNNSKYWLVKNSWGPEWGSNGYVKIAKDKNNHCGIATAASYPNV

## Ac-Dap-Orn-Phe(3-Cl)-Nle(OBzl)-ACC
Cathepsin L; [1]
  kcat/KM: 47,400,000 M^-1s^-1
Cathepsin L; [2]
  kcat: 124 s⁻¹
  kcat/KM: 47,400,000 M-1s-1
Cathepsin L; Table S2, cathepsin L, four independent experiments, S.D. below 15%, read-out: KM
  Km: 2.63 µM
Cathepsin L; kcat/KM compared with reference substrate
  hydrolysis by cathepsin L relative to Ac-His-Arg-Phe-Arg-ACC substrate: ~4 times

## Ac-H[dK][Phe(F5)]R-{ACC} (SMILES CC(=O)N[C@@H](Cc1c[nH]cn1)C(=O)N[C@H](CCCCN)C(=O)N[C@@H](Cc1c(F)c(F)c(F)c(F)c1F)C(=O)N[C@@H](CCCNC(=N)N)C(=O)Nc1ccc2c(CC(N)=O)cc(=O)oc2c1)
Cathepsin L; [3]
  kcat/KM Cath-L: 715,000 M^-1s^-1
Cathepsin V
  kcat/KM Cath-V: 1,010 M^-1s^-1
Cathepsin B
  kcat/KM Cath-B: 175 M⁻¹ s⁻¹
Cathepsin K
  kcat/KM Cath-K: 29 M⁻¹ s⁻¹
Cathepsin S
  kcat/KM Cath-S: < 10 M⁻¹ s⁻¹

## Ac-H[dL][Phe(F5)]R-{ACC} (SMILES CC(=O)N[C@@H](Cc1c[nH]cn1)C(=O)N[C@H](CC(C)C)C(=O)N[C@@H](Cc1c(F)c(F)c(F)c(F)c1F)C(=O)N[C@@H](CCCNC(=N)N)C(=O)Nc1ccc2c(CC(N)=O)cc(=O)oc2c1)
Cathepsin L; [3]
  kcat/KM Cath-L: 405,900 M^-1s^-1
Cathepsin V
  kcat/KM Cath-V: 353 M⁻¹ s⁻¹
Cathepsin B
  kcat/KM Cath-B: 135 M⁻¹ s⁻¹
Cathepsin K
  kcat/KM Cath-K: < 10 M⁻¹ s⁻¹
Cathepsin S
  kcat/KM Cath-S: < 10 M⁻¹ s⁻¹

## Ac-H[dQ][Phe(F5)]R-{ACC} (SMILES CC(=O)N[C@@H](Cc1c[nH]cn1)C(=O)N[C@H](CCC(N)=O)C(=O)N[C@@H](Cc1c(F)c(F)c(F)c(F)c1F)C(=O)N[C@@H](CCCNC(=N)N)C(=O)Nc1ccc2c(CC(N)=O)cc(=O)oc2c1)
Cathepsin L; [3]
  kcat/KM Cath-L: 336,900 M^-1s^-1
Cathepsin V
  kcat/KM Cath-V: 1,070 M^-1s^-1
Cathepsin B
  kcat/KM Cath-B: 130 M⁻¹ s⁻¹
Cathepsin K
  kcat/KM Cath-K: < 10 M⁻¹ s⁻¹
Cathepsin S
  kcat/KM Cath-S: < 10 M⁻¹ s⁻¹

## Ac-H[dT][Phe(F5)]R-{ACC} (SMILES CC(=O)N[C@@H](Cc1c[nH]cn1)C(=O)N[C@@H](C(=O)N[C@@H](Cc1c(F)c(F)c(F)c(F)c1F)C(=O)N[C@@H](CCCNC(=N)N)C(=O)Nc1ccc2c(CC(N)=O)cc(=O)oc2c1)[C@H](C)O)
Cathepsin L; [3]
  kcat/KM Cath-L: 729,200 M^-1s^-1
Cathepsin L; [4]
  kcat Cat L: 38.6 s⁻¹
Cathepsin L; Table S7, four independent experiments, S.D. below 15%, read-out: KM Cat L
  Km: 53.1 µM
Cathepsin V
  kcat/KM Cath-V: 286 M⁻¹ s⁻¹
Cathepsin V; [4]
  kcat Cat V: 0.0178 s⁻¹
  kcat/KM Cat V: 286 M⁻¹ s⁻¹
Cathepsin V; Table S7, four independent experiments, S.D. below 15%, read-out: KM Cat V
  Km: 61.4 µM
Cathepsin B
  kcat/KM Cath-B: 94 M⁻¹ s⁻¹
Cathepsin B; [4]
  kcat Cat B: 0.00673 s⁻¹
  kcat/KM Cat B: 94 M⁻¹ s⁻¹
Cathepsin B; Table S7, four independent experiments, S.D. below 15%, read-out: KM Cat B
  Km: 71.5 µM
Cathepsin K
  kcat/KM Cath-K: < 10 M⁻¹ s⁻¹
Cathepsin K; [4]
  kcat/KM Cat K: < 10 M⁻¹ s⁻¹
Cathepsin S
  kcat/KM Cath-S: < 10 M⁻¹ s⁻¹
Cathepsin S; [4]
  kcat/KM Cat S: < 10 M⁻¹ s⁻¹

## Ac-H[dV]T(Bn)R-{ACC} (SMILES CC(=O)N[C@@H](Cc1c[nH]cn1)C(=O)N[C@@H](C(=O)N[C@H](C(=O)N[C@@H](CCCNC(=N)N)C(=O)Nc1ccc2c(CC(N)=O)cc(=O)oc2c1)[C@@H](C)OCc1ccccc1)C(C)C)
Cathepsin L; [3]
  kcat/KM Cath-L: 158,520 M^-1s^-1
Cathepsin V
  kcat/KM Cath-V: 424 M⁻¹ s⁻¹
Cathepsin B
  kcat/KM Cath-B: 480 M⁻¹ s⁻¹
Cathepsin K
  kcat/KM Cath-K: 130 M⁻¹ s⁻¹
Cathepsin S
  kcat/KM Cath-S: < 10 M⁻¹ s⁻¹

## Ac-H[dV][Phe(2-Cl)]R-{ACC} (SMILES CC(=O)N[C@@H](Cc1c[nH]cn1)C(=O)N[C@@H](C(=O)N[C@@H](Cc1ccccc1Cl)C(=O)N[C@@H](CCCNC(=N)N)C(=O)Nc1ccc2c(CC(N)=O)cc(=O)oc2c1)C(C)C)
Cathepsin L; [3]
  kcat/KM Cath-L: 5,689,000 M^-1s^-1
Cathepsin V
  kcat/KM Cath-V: 11,600 M^-1s^-1
Cathepsin B
  kcat/KM Cath-B: 1,360 M^-1s^-1
Cathepsin K
  kcat/KM Cath-K: 13,000 M^-1s^-1
Cathepsin S
  kcat/KM Cath-S: 2,760 M^-1s^-1

## Ac-H[dV][Phe(3,4-F2)]R-{ACC} (SMILES CC(=O)N[C@@H](Cc1c[nH]cn1)C(=O)N[C@@H](C(=O)N[C@@H](Cc1ccc(F)c(F)c1)C(=O)N[C@@H](CCCNC(=N)N)C(=O)Nc1ccc2c(CC(N)=O)cc(=O)oc2c1)C(C)C)
Cathepsin L; [3]
  kcat/KM Cath-L: 6,031,000 M^-1s^-1
Cathepsin V
  kcat/KM Cath-V: 10,100 M^-1s^-1
Cathepsin B
  kcat/KM Cath-B: 2,520 M^-1s^-1
Cathepsin K
  kcat/KM Cath-K: 1,010 M^-1s^-1
Cathepsin S
  kcat/KM Cath-S: 580 M⁻¹ s⁻¹

## Ac-[Dab]R[Phe(3-Cl)]R-{ACC} (SMILES CC(=O)N[C@@H](CCN)C(=O)N[C@@H](CCCNC(=N)N)C(=O)N[C@@H](Cc1cccc(Cl)c1)C(=O)N[C@@H](CCCNC(=N)N)C(=O)Nc1ccc2c(CC(N)=O)cc(=O)oc2c1)
Cathepsin L; [1]
  kcat/KM: 31,960,000 M^-1s^-1

## Ac-[Dab][Orn][Phe(3-Cl)]R-{ACC} (SMILES CC(=O)N[C@@H](CCN)C(=O)N[C@@H](CCCN)C(=O)N[C@@H](Cc1cccc(Cl)c1)C(=O)N[C@@H](CCCNC(=N)N)C(=O)Nc1ccc2c(CC(N)=O)cc(=O)oc2c1)
Cathepsin L; [1]
  kcat/KM: 35,070,000 M^-1s^-1
